Data on four compounds can be found in publication PMC11885506, “Evaluation of a non-animal toolbox informed by adverse outcome pathways for human inhalation safety” (Frontiers in Toxicology, 2025).

The test system of data set [1] is EpiAlveolar™ tissues. In words: High-throughput transcriptomics (RNA-seq, PLIER latent variables), EpiAlveolar model, Laboratory 2. The format is cell-based, human. To be noted: Transcriptomics, biomarker 30.
The next data set deals with EpiAlveolar™ model. In words: Bioactivity exposure ratio (BER): lowest in vitro PoD of EpiAlveolar readouts / lower respiratory tract exposure estimate or Cmax. Also noted: species or system human. The following applies: Plasma.
In data set [2] the test system is EpiAlveolar™ tissues. The experiment in a line: Cytokine and chemokine measurements (Luminex), EpiAlveolar model, Laboratory 2. It counts as cell-based, human. To be noted: for MinPoD: EpiAlveolar™ model Laboratory-2. The source says:
(§1) EpiAlveolar™ system was obtained from MatTek Corporation (Ashland, MA, United States, cat. no. ALV-100-FT-MAC, ALV-100-FT-MAC-PE12). According to the supplier, the tissue systems were derived from primary human alveolar epithelial cells and primary pulmonary fibroblasts, both from a same healthy donor, and pulmonary endothelial cells from another healthy donor, and THP-1 cell line derived macrophages. These tissues were differentiated by the manufacturer prior to shipping to the testing facilities. […] TEER was measured and only systems with confirmed quality of the tight junction barrier (>300 Ω.cm^2) and with approved morphological inspection were used in the experiments.
(§2) Vehicle control groups were also tested in parallel. Except for Doxorubicin (which underwent a 6-day chemical exposure + 6-day without exposure), exposures were conducted daily, on 12 consecutive days with different concentrations, through aerosol, apical or basolateral liquid exposure methods (Table 2). […] Each of the insert holders of the instrument base module was filled with Hanks’ Balanced Salt solution (HBSS) or PBS prior to placing the tissue inserts. Then, each test item solution/suspension was placed into the nebulizer reservoir for aerosol material exposure. The nebulizer was activated until the material solution/suspension was consumed and discharged into the main exposure chamber and allowed to fully gravity deposit out of the Cloud 12 (determined using a QCM). After exposure, the tissues were placed back into their multi-well culture plates containing the same medium, a further aliquot of media was added apically (20 µL for Akemi, 75 µL for all others except LPS) and returned to incubator until next exposure. Media used during the 6- or 12-day experimental period was prepared without Supplement X by MatTek. In medium exposure, the apical or basolateral liquid of each tissue was removed and replaced with each test item medium solution/suspension and returned to the incubator until the next exposure. After the beginning of the exposure cycles, tissues were only re-fed with new culture medium every 3-4 days.
In Laboratory 2, apical culture media samples of the tissues were collected, stored at −80°C until shipment, in dry ice with temperature monitor control, to Unilever SERS, where the analyses were performed. Upon receipt, samples were again stored in the −80°C until the analysis using Human Luminex® Discovery Assay kits (R&D Systems). The same readouts investigated for MucilAir™-HF tissue samples were quantified in these samples.

In data set [3] the test system is EpiAlveolar™ tissues. In words: Cytokine and chemokine measurements (Luminex), EpiAlveolar model, Laboratory 1. It counts as cell-based, human. The following applies: for MinPoD: EpiAlveolar™ model Laboratory-1, biomarker ICAM-1.
Source text: as §1, §2
In Laboratory 1, basal media samples collected from the tissues were collected and stored at ≤ −60°C until analysis. For cytokine/chemokine measurements, 17-Plex, duplex and single-plex analyte detection panels were run on the samples using Human Luminex™ Multiplex Immunoassay kits (R&D Systems). The analytes quantified were TNF-α, IL-6, MMP-9, MMP-3, MMP-1, MMP-2, CXCL10, CCL2, IFN-γ, IL-1ra, CCL7, IL-1a, CCL26, CXCL9, VCAM-1, ICAM-1, and CXCL11 in a 17-plex assay; whereas IL-8 and Serpin E1 in a duplex assay and TGF-β1 in a single-plex assay.

The subject of another data set is patients. The arrangement: method as in Budin et al., 2022. To be noted: ref Budin et al., 2022; cited from earlier work.
For data set [4], the system named is EpiAlveolar™ tissues. The experiment in a line: Histology and immunohistochemistry, EpiAlveolar model, Laboratory 2. The following applies: Laboratory 2, 12-day period.
Description: To evaluate the quality of EpiAlveolar™ tissues over the 12-day experimental period, histological and immunohistochemistry assessments for detection of pan-cytokeratin, vimentin, aquaporin 5, pro-surfactant C, CD68, caspase-3, and/or αSMA were performed by Laboratories 1 and 2.
Tissues were kept in 10% phosphate buffered formalin at 4°C for up to 48 h. Samples were then fixed in 70% ethanol and two strips of membrane were trimmed from each sample, processed, and paraffin-embedded to be cut at 5 µm thick sections and mounted to glass slides. The slides were then dewaxed in xylene, hydrated using graded industrial methylated spirit (70-100%) and stained with H&E for light microscope analysis.
For immunohistochemistry analysis, tissue sections-containing microscope slides were obtained and processed using a Discovery Ultra Staining System (Roche), according to manufacturer’s instructions, except for anti-CD68 staining that was manually performed. The slides were incubated at 60°C for 8 min and then deparaffinized at 69°C for 24 min. After that, slides were incubated with inhibitor CM or peroxidase blocking solution (for anti-CD68 staining) for 8 min at room temperature. The slides were then incubated at room temperature with the following primary monoclonal antibodies, following manufacturer’s instructions: anti-α smooth muscle actin (αSMA) at 1:500 (Leica Microsystems Ltd), anti-CD68 at 1:3000 for macrophages (11192-T24, Sino Biological), anti-pro-surfactant C protein at 1:1000 (AB3786, Sigma-Aldrich), anti-caspase-3 at 1:10000 (AB4051, Abcam), anti-aquaporin 5 (31661, Invitrogen), anti-pan-cytokeratin for epithelial cells (760-2595, Roche), and anti-vimentin for mesenchymal cells (790-2917, Roche). […]
A board-certified pathologist evaluated the changes (epithelial thinning, separation/detachment areas, necrosis, collagen, and presence of apoptotic cells, myofibroblasts, and type II pneumocytes) using a semi-quantitative scoring system (Table 2).
The conditions of data set [5]: cited from earlier work.
For data set [6], the system named is MucilAir™-HF tissues. The experiment in a line: Mucin secretion measurement (enzyme-linked lectin assay), MucilAir-HF model. It counts as cell-based, human. The source says:
(§3) Tissues were handled as recommended by manufacturer’s instruction.
Mucin production was quantified using an enzyme-linked lectin assay, following a protocol previously published ([Rossner et al., 2019]).

Another data set concerns MucilAir™-HF model. The experiment in a line: Bioactivity exposure ratio (BER): lowest in vitro PoD of MucilAir-HF readouts / upper respiratory tract exposure estimate.
Data set [7] concerns MucilAir™-HF tissues. The experiment in a line: Mucin-5AC (Muc5AC) immunohistochemistry, goblet cells, MucilAir-HF model. To be noted: for Increase in cells expressing Muc5AC protein: 30 min/day. The format is cell-based, human. Here is the method: as §3
The presence of goblet cells was assessed through immunohistochemistry analysis for mucin-5AC protein (Muc5AC) detection. IL-13 and cytomix were used as positive controls (see item 2.5.2 for additional details). On last day of experiment (day 12), cultures (n = 3 tissues/group) were rinsed in PBS and fixed by immersion in 4% formaldehyde for 20 min. Fixed tissues were embedded into paraffin, sectioned, and processed for staining on paraffin sections. The immunostaining of the sections was performed with the Benchmark automated platform (Ventana-Roche, Hoffmann-La Roche Ltd, Basel, Switzerland) and the Autostainer Link 48 (Agilent, Santa Clara, CA. United States) with the detection kit Ultraview DAB (DAB chromogeny, Hoffmann-La Roche Ltd). Sections were pre-treated using heat mediated antigen retrieval with sodium citrate buffer, pH 6, for 20 min. The section was then incubated with recombinant anti-mucin 5AC antibody (ab3649, Abcam) for 1 h at room temperature, followed by biotinylated secondary antibody (Dako) and HRP detection (HRP conjugated ABC system, Vector Laboratories), according to manufacturer’s instruction. The section was then counterstained with hematoxylin (Sigma-Aldrich) and mounted with DPX, a synthetic non-aqueous mounting medium for microscopy. Digital images of the slides were then acquired, and quantitative image analysis performed using Image Pro Plus 6.2 (Media Cybernetics) to quantify the goblet cells on a section. The whole images of stained sections were scanned, and an average 15 images/section were analysed. The results are the ratio between the mucin 5AC stained area and the total surface area of the epithelium on the section.

Data set [8] has as its system MucilAir™-HF tissues. The experiment in a line: Cytokine and chemokine measurements (Luminex), MucilAir-HF model. The format is cell-based, human. The following applies: MucilAir-HF, 30 min/day exposure. As for the experimental part:
as §3
Basolateral medium samples of the tissue cultures were collected and stored at −80°C until analysis. The following cytokines/chemokines were quantified using customized Human Luminex® Discovery Assay kits (R&D Systems): chemokine (C-C motif) ligand (CCL) 2, CCL7, CCL26, C-X-C motif chemokine ligand (CXCL) 10, CXCL11, intercellular adhesion molecule-1 (ICAM-1), IL-1α, IL-6, IL-8, matrix metalloproteinase (MMP)-1, MMP-2, MMP-3, MMP-7, MMP-9, osteopontin, interferon (IFN)-γ, IL-1 receptor antagonist (IL-1Ra), urokinase-type plasminogen activator receptor (uPAR), tumour necrosis factor (TNF)-α, urokinase (uPA), serpin E1, tissue inhibitor of metalloproteinase 1 (TIMP-1), and TGF-β1. Samples were measured in technical triplicates according to the manufacturer’s recommendation using a Luminex Bio-Plex® 200 RUO System ([…]).

The next data set concerns NCI-H292 cells. The following applies: 1 µM for 48h; ref Matsuyama et al., 2018; cited from earlier work.
Data set [9] relates to primary human nasal epithelial cells. The arrangement: method as in Uchenna Agu et al., 1999. To be noted: 10^-5 and 10^-3 M for 30-45 min; ref Uchenna Agu et al., 1999; cited from earlier work.
The test system of another data set is 16HBE14 o^− cells. The following applies: cited from earlier work.
Where [10] appears, read: 30 min/day exposure, day 12, High 1 concentration (third of the tested concentrations), average ± standard deviation.
[11] abbreviates: 30 min/day exposure, day 12, Low concentration (first of the tested concentrations), average ± standard deviation.
The mark [12] stands for this setting: 30 min/day exposure, day 12, Medium concentration (second of the tested concentrations), average ± standard deviation.

Entries after “also recorded” stand apart in the source; their conditions may differ. Where a name gives a salt, the structure may show the parent alone.

Description for EpiAlveolar™ model: (§4) Concentration and time-dependent changes in the bioactivity readout data were analyzed using a nonlinear state space model, based on the work of [Svensson and Schön (2017)]. […] All bioactivity readouts were included in the analysis (where available), i.e., measurements for tissue integrity loss (TEER) and functionality (MCC, CBF, and mucin secretion), cytokine/chemokine secretion, and the transcriptional LV values obtained using PLIER. The datasets were grouped so that a single state space model was used to capture all the responses (across time, concentration, and test material) for a single readout obtained within a particular study (laboratory/tissue model). Data were transformed to the log base 10 scale and normalized using z-scores, so that for a given readout Ytij from a laboratory/tissue model, the corresponding normalized value was given by y^tij=⁡log⁡10(Ytij)−μ)/σ . Here, the indexes i,j,t correspond to the different test materials, concentrations and timepoints, μ and σ are the sample mean and standard deviation of the control readout values obtained for the first timepoint. All measurement were then scaled so that the maximum median value across different replicates was one for all timepoints, readouts and test materials within a given laboratory/tissue model.
The model consists of state variables xti,j , response variables ytij and the concentrations of material c^i,j . The response variables yti,j represent the normalized (see below) readout values at timepoint t for material exposure i,j . The mean of the response variable is given by xti,j , so that yti,j∼xti,j+et , where et represents random fluctuations in the readout values, due to observational noise, which are taken to be normally distributed. Dynamical changes in state values are given by xti,j=fxt−1i,j,cti,j+vt . Here, fxt−1i,j,c^i,j is a non-linear function that represents interactions between different state variables and the perturbation caused by the test material at a given exposure at concentration c^i,j, and vt represents random fluctuations in state dynamics (which are also normally distributed). Following [Svensson and Schön (2017)], the nonlinear terms are based on an approximation to Gaussian processes, which are obtained using a basis function expansion-based approach. Inference of the model parameters was performed in the framework of Bayesian inference, wherein random draws of the posterior distribution were obtained using Sequential Monte Carlo (SMC), see [Svensson and Schön (2017)] and [Chopin and Papaspiliopoulos (2020)]. For each state space model representing a particular laboratory/readout dataset, SMC simulation was run for three chains at 5,000 iterations each, and first 1,000 iterations were discarded from the final posterior samples. The Rhat convergence diagnostic (Rhat < 1.1) was used to ensure the simulations had converged.
The state space model and posterior model parameter samples were then used to construct posterior predictive distributions of the response of each readout to a given test material for a given concentration and timepoint (see Figure 4). The posterior predictive distributions were used to estimate various statistics on the readout responses (median, 95% credible range etc.), PoDs, Concentration Dependency Scores (CDS) and two Effect Scores (increase and decrease). PoDs were defined as the concentration at which the mean response to a test material exceeded the 95% credible range of control for each timepoint (otherwise the mean response remains within the range of control). PoDs distribution for each timepoint, test material and readout, from which different statistical measures (e.g., the median, 95% credible range etc.) were calculated. The CDS was designed to provide confidence metric in whether an effect in the data was truly concentration dependent.
Description for MucilAir™-HF model: as §4
The model consists of state variables xti,j , response variables ytij and the concentrations of material c^i,j . The response variables yti,j represent the normalized (see below) readout values at timepoint t for material exposure i,j . The mean of the response variable is given by xti,j , so that yti,j∼xti,j+et , where et represents random fluctuations in the readout values, due to observational noise, which are taken to be normally distributed. Dynamical changes in state values are given by xti,j=fxt−1i,j,cti,j+vt . […] For each state space model representing a particular laboratory/readout dataset, SMC simulation was run for three chains at 5,000 iterations each, and first 1,000 iterations were discarded from the final posterior samples. […]

On to `CCCCc1oc2ccccc2c1C(=O)c1cc(I)c(OCCN(CC)CC)c(I)c1` [Amiodarone, Amiodarone hydrochloride], for which the MinPoD was found to be 0.008474 μg/cm2 with EpiAlveolar™ tissues [1] (Day 4); 0.008494 μg/cm2 in the data set on EpiAlveolar™ tissues [1] (Day 8); 0.00835 μg/cm2 with EpiAlveolar™ tissues [1] (Day 12); 6.9528 μg/cm2 in the data set with EpiAlveolar™ tissues [2] (Day 4, biomarker MMP-1); 5.203 μg/cm2 with EpiAlveolar™ tissues [2] (Day 8, biomarker ICAM-1); 5.033 μg/cm2 with EpiAlveolar™ tissues [2] (Day 12, biomarker ICAM-1). In addition, the MinPoD stood at 1.317 μg/cm2 in the data set on EpiAlveolar™ tissues [3] (Day 8) and 0.971 μg/cm2 in the data set on EpiAlveolar™ tissues [3] (Day 12). The BER_min in the data set on EpiAlveolar™ model (Day 4, EpiAlveolar™ model Laboratory-2) is on record as 3.4764; with EpiAlveolar™ model (Day 4, Transcriptomics), 0.004237; with EpiAlveolar™ model (Day 8, EpiAlveolar™ model Laboratory-1), 0.6586; with EpiAlveolar™ model (Day 8, EpiAlveolar™ model Laboratory-2), 2.602; with EpiAlveolar™ model (Day 8, Transcriptomics), 0.004247; with EpiAlveolar™ model (Day 12, EpiAlveolar™ model Laboratory-1) it was 0.4855. Further, the BER_min in the data set on EpiAlveolar™ model (Day 12, EpiAlveolar™ model Laboratory-2) is listed as 2.516; in the data set with EpiAlveolar™ model (Day 12, Transcriptomics), 0.004174. Further, the “Cytokines/chemokines modulated (in words)” value in the data set on EpiAlveolar™ tissues [2] (EpiAlveolar, Laboratory 2) is “upregulated levels of ICAM-1; also recorded: downregulated levels of MMP-1 and MMP-2”; in the data set on EpiAlveolar™ tissues [3] (EpiAlveolar, Laboratory 1) it was “upregulated levels of ICAM-1”. Also, in the data set with patients, the “Patients developing Amiodarone-induced pulmonary fibrosis following typical Amiodarone pneumonitis” value is 5%–7%. Further, in the data set on EpiAlveolar™ tissues [4], the “Histological changes compared to vehicle and control groups (in words)” value is recorded as “changes were not observed”. Further, the Risk result in data set [5] (Scenario Plasma) is given as “High”. Further, the Risk classification entry in data set [5] (per benchmark chemical-exposure scenario (product and exposure scenario of the same line), based on historical safety decisions, ref References column of Table 3) is “High”.

For `O=c1ccc2ccccc2o1` [Coumarin], the MinPoD in the data set with MucilAir™-HF tissues [6] (Day 8, biomarker Mucins) came out at 6.056 μg/cm2; in the data set with MucilAir™-HF tissues [6] (Day 12, biomarker Mucins), 4.8708 μg/cm2. In addition, the BER_min is given as 30691.6 with MucilAir™-HF model (Scenario1, Day 8) and 24110.2 with MucilAir™-HF model (Scenario1, Day 12). Besides, the “% of Muc5AC area” value with MucilAir™-HF tissues [7] (setting [10]) is 3.29 ± 0.36%; in the data set with MucilAir™-HF tissues [7] (setting [11]), 5.09 ± 0.57%; with MucilAir™-HF tissues [7] (setting [12]), 6.83 ± 1.07%; in the data set with MucilAir™-HF tissues [7] (6 h/day exposure, day 12, single tested concentration, average ± standard deviation) it was 2.85 ± 0.43%.

As for `CC(C)NCC(O)c1ccc(O)c(O)c1` (stereo not drawn) [Isoproterenol, Isoproterenol hydrochloride], the “Cytokines/chemokines modulated (in words)” value with MucilAir™-HF tissues [8] was “downregulation of MMP-7 only”. Besides, the “MUC5AC mRNA expression” value with NCI-H292 cells was “significant increase in MUC5AC mRNA expression”. Besides, the “Increase in cells expressing Muc5AC protein” value came to 2.5 fold with MucilAir™-HF tissues [7] (50 μM) and 3 fold in the data set with MucilAir™-HF tissues [7] (100 μM). Further, the “% of Muc5AC area” value with MucilAir™-HF tissues [7] (setting [10]) came to 18.91 ± 3.09%; in the data set on MucilAir™-HF tissues [7] (setting [11]), 8.78 ± 1.62%; in the data set with MucilAir™-HF tissues [7] (setting [12]), 15.53 ± 1.41%. Moreover, the CBF entry in data set [9] is “maximally and irreversibly increased ciliary CBF”. Further, in the data set with 16HBE14 o^− cells (1-30 nM for 18h, 16HBE cells, ref Lindén, 1996), the IL-8 levels result is on record as “IL-8 levels were also increased”. Moreover, the “IL-6 and IL-8 release” value in the data set on 16HBE14 o^− cells (10-100 nM for 24h, ref Oehme et al., 2015) is “significant increase of IL-6 and IL-8 release”.

As for “IL-13: goblet cell hyper-, metaplasia agent used as positive control at 10 ng/mL”, the “Increase in cells expressing Muc5AC protein compared to unexposed tissues” value in the data set with MucilAir™-HF tissues [7] (positive control IL-13 at 10 ng/mL) turned out to be 4 fold. Also, the “% of Muc5AC area” value with MucilAir™-HF tissues [7] (positive controls via liquid basal exposure, 30 min/day column, day 12, average ± standard deviation) is given as 26.35 ± 3.34%.
